Converted amounts (≈) assume the structure as drawn. Where two headings read alike, the source gives them in different places. Ends that are not written are not given here.
Key:
P. aeruginosa PAO1 = settings: for EC50 P. aeruginosa PAO1 μg/ml ± sem: average ± sem
E. coli DH5α = settings: for EC50: DH5α; for EC50 E. coli DH5α: ionic strength 25 mM, avg ± sem
E. coli ML-35p = settings: Table 13; for MIC E. coli [NaCl] High: high salt underlay (10 mM sodium phosphate buffer +100 mM NaCl, pH 7.4); for MIC E. coli [NaCl] Low: low salt underlay (10 mM sodium phosphate buffer, pH 7.4)
P. aeruginosa MR 3007 = settings: MR 3007, pH 7.4
S. aureus 930918-3 = settings: 930918-3, pH 7.4
MRSA ATCC 33591 = settings: ATCC 33591, pH 7.4
[1] = ionic strength 25 mM, avg ± sem
[2] = ionic strength 175 mM, avg ± sem

KNIRRIIRKIIHIIKKYG [SMAP29X-18C]
EC50 P. aeruginosa PAO1 (P. aeruginosa PAO1; [1]): 0.24 ± 0.01 µg/mL | EC50 P. aeruginosa PAO1 (P. aeruginosa PAO1; [2]): 0.61 ± 0.12 µg/mL

LRKFRNKIKEKLKKIGQKIQG [CAP18-21b]
EC50 P. aeruginosa PAO1 (P. aeruginosa PAO1; [1]): 1.83 ± 0.51 µg/mL | EC50 P. aeruginosa PAO1 (P. aeruginosa PAO1; [2]): 3.45 ± 0.02 µg/mL | EC50 (E. coli DH5α): 1.17 ± 0.13 µM | EC50 E. coli DH5α (E. coli DH5α): 2.99 ± 0.33 µg/mL | MIC E. coli [NaCl] High (E. coli ML-35p): 0.5 µg/mL | MIC E. coli [NaCl] Low (E. coli ML-35p): 2.3 µg/mL | MIC P. aeruginosa [NaCl] High (P. aeruginosa MR 3007): 23.5 µg/mL | MIC P. aeruginosa [NaCl] Low (P. aeruginosa MR 3007): 2.9 µg/mL | MIC S. aureus [NaCl] High (S. aureus 930918-3): >250 µg/mL | MIC S. aureus [NaCl] Low (S. aureus 930918-3): 16.3 µg/mL | MIC MRSA [NaCl] High (MRSA ATCC 33591): >250 µg/mL | MIC MRSA [NaCl] Low (MRSA ATCC 33591): 10.3 µg/mL

LRRIIRKIIHIIKK [SMAP29X-14B]
EC50 P. aeruginosa PAO1 (P. aeruginosa PAO1; [1]): 0.55 ± 0.03 µg/mL | EC50 P. aeruginosa PAO1 (P. aeruginosa PAO1; [2]): 5.55 ± 0.42 µg/mL

RGLRALGRKIAHGVKAYG [SMAP29-18AA]
EC50 P. aeruginosa PAO1 (P. aeruginosa PAO1; [1]): 0.62 ± 0.13 µg/mL | EC50 P. aeruginosa PAO1 (P. aeruginosa PAO1; [2]): 7.85 ± 1.16 µg/mL

RIIRKIIHIIK-NH2 [SMAP29X-11B]
EC50 P. aeruginosa PAO1 μg/ml ± sem (P. aeruginosa PAO1; ionic strength 25 mM): 0.46 ± 0.02 µg/mL | EC50 P. aeruginosa PAO1 μg/ml ± sem (P. aeruginosa PAO1; ionic strength 175 mM): 10.42 ± 0.26 µg/mL

CC[C@H](C)[C@H](NC(=O)[C@H](CCCNC(=N)N)NC(=O)[C@H](CCCNC(=N)N)NC(=O)[C@@H](NC(=O)[C@@H](N)CC(N)=O)[C@@H](C)CC)C(=O)N[C@H](C(=O)N[C@@H](CCCNC(=N)N)C(=O)N[C@@H](CCCCN)C(=O)N[C@H](C(=O)N[C@H](C(=O)N[C@@H](Cc1c[nH]cn1)C(=O)N[C@H](C(=O)N[C@H](C(=O)N[C@@H](CCCCN)C(=O)N[C@@H](CCCCN)C(=O)N[C@@H](Cc1ccc(O)cc1)C(N)=O)[C@@H](C)CC)[C@@H](C)CC)[C@@H](C)CC)[C@@H](C)CC)[C@@H](C)CC [SMAP29X-16C]
EC50 P. aeruginosa PAO1 (P. aeruginosa PAO1; [1]): 0.65 µg/mL (≈ 0.313 µM) | EC50 P. aeruginosa PAO1 (P. aeruginosa PAO1; [2]): 2.21 µg/mL (≈ 1.06 µM)

KNLRRIIRKIIHIIKKYGPTILRIIRIIG-NH2 [SMAP29X]
EC50 P. aeruginosa PAO1 (P. aeruginosa PAO1; [1]): 2.74 ± 0.65 µg/mL | EC50 P. aeruginosa PAO1 (P. aeruginosa PAO1; [2]): 4.51 ± 0.24 µg/mL | MIC E. coli [NaCl] High (E. coli ML-35p): 0.8 µg/mL | MIC E. coli [NaCl] Low (E. coli ML-35p): 1.5 µg/mL | MIC P. aeruginosa [NaCl] High (P. aeruginosa MR 3007): 1.0 µg/mL | MIC P. aeruginosa [NaCl] Low (P. aeruginosa MR 3007): 2.6 µg/mL | MIC S. aureus [NaCl] High (S. aureus 930918-3): 1.5 µg/mL | MIC S. aureus [NaCl] Low (S. aureus 930918-3): 1.6 µg/mL | MIC MRSA [NaCl] High (MRSA ATCC 33591): 1.0 µg/mL | MIC MRSA [NaCl] Low (MRSA ATCC 33591): 6.2 µg/mL

KNIRRIIRKIIHIIKKYG-NH2 [SMAP29X-18B]
EC50 P. aeruginosa PAO1 (P. aeruginosa PAO1; [1]): 0.16 ± 0.01 µg/mL | EC50 P. aeruginosa PAO1 (P. aeruginosa PAO1; [2]): 0.54 ± 0.05 µg/mL

KIKEKLKKIGQKIQGLL [CAP18-17]
EC50 P. aeruginosa PAO1 (P. aeruginosa PAO1; PAO1): >25 µg/mL | EC50 P. aeruginosa PAO1 (P. aeruginosa PAO1; [1]): 2.33 ± 0.35 µg/mL | EC50 (E. coli DH5α): 1.27 ± 0.2 µM | EC50 E. coli DH5α (E. coli DH5α): 2.51 ± 0.38 µg/mL | MIC E. coli [NaCl] High (E. coli ML-35p): 1.9 µg/mL | MIC E. coli [NaCl] Low (E. coli ML-35p): 9.7 µg/mL | MIC P. aeruginosa [NaCl] High (P. aeruginosa MR 3007): >250 µg/mL | MIC P. aeruginosa [NaCl] Low (P. aeruginosa MR 3007): 5.1 µg/mL | MIC S. aureus [NaCl] High (S. aureus 930918-3): >250 µg/mL | MIC S. aureus [NaCl] Low (S. aureus 930918-3): >250 µg/mL | MIC MRSA [NaCl] High (MRSA ATCC 33591): >250 µg/mL | MIC MRSA [NaCl] Low (MRSA ATCC 33591): >250 µg/mL

NLRRIIRKIIHIIKKY-NH2 [SMAP29X-16B]
EC50 P. aeruginosa PAO1 (P. aeruginosa PAO1; [1]): 0.75 µg/mL | EC50 P. aeruginosa PAO1 (P. aeruginosa PAO1; [2]): 3.78 µg/mL

RRIIRKIIHIIKK-NH2 [SMAP29X-13B]
EC50 P. aeruginosa PAO1 μg/ml ± sem (P. aeruginosa PAO1; ionic strength 25 mM): 0.22 ± 0.02 µg/mL | EC50 P. aeruginosa PAO1 μg/ml ± sem (P. aeruginosa PAO1; ionic strength 175 mM): 1.51 ± 0.09 µg/mL

NIRRIIRKIIHIIKKY [SMAP29X-16D]
EC50 P. aeruginosa PAO1 (P. aeruginosa PAO1; [1]): 0.70 ± 0.36 µg/mL | EC50 P. aeruginosa PAO1 (P. aeruginosa PAO1; [2]): 3.64 ± 1.75 µg/mL

IRRIIRKIIHIIKK-NH2 [SMAP29X-14C]
EC50 P. aeruginosa PAO1 (P. aeruginosa PAO1; [1]): 0.29 ± 0.04 µg/mL | EC50 P. aeruginosa PAO1 (P. aeruginosa PAO1; [2]): 1.21 ± 0.05 µg/mL

KIKEKLKKIGQKIQG [CAP18-15b]
EC50 P. aeruginosa PAO1 (P. aeruginosa PAO1; PAO1): >80 µg/mL | EC50 P. aeruginosa PAO1 (P. aeruginosa PAO1; [1]): 10.3 ± 0.3 µg/mL | EC50 (E. coli DH5α): 4.15 ± 1.04 µM | EC50 E. coli DH5α (E. coli DH5α): 7.23 ± 1.81 µg/mL | MIC E. coli [NaCl] High (E. coli ML-35p): >250 µg/mL | MIC E. coli [NaCl] Low (E. coli ML-35p): 1.6 µg/mL | MIC P. aeruginosa [NaCl] High (P. aeruginosa MR 3007): >250 µg/mL | MIC P. aeruginosa [NaCl] Low (P. aeruginosa MR 3007): 8.7 µg/mL | MIC S. aureus [NaCl] High (S. aureus 930918-3): >250 µg/mL | MIC S. aureus [NaCl] Low (S. aureus 930918-3): >250 µg/mL | MIC MRSA [NaCl] High (MRSA ATCC 33591): >250 µg/mL | MIC MRSA [NaCl] Low (MRSA ATCC 33591): >250 µg/mL

LRRIIRKIIHIIK-NH2 [SMAP29X-13A]
EC50 P. aeruginosa PAO1 μg/ml ± sem (P. aeruginosa PAO1; ionic strength 25 mM): 0.27 ± 0.03 µg/mL | EC50 P. aeruginosa PAO1 μg/ml ± sem (P. aeruginosa PAO1; ionic strength 175 mM): 2.23 ± 0.41 µg/mL

RRIIRKIIHII-NH2 [SMAP29X-11A]
EC50 P. aeruginosa PAO1 μg/ml ± sem (P. aeruginosa PAO1; ionic strength 25 mM): 0.38 ± 0.04 µg/mL | EC50 P. aeruginosa PAO1 μg/ml ± sem (P. aeruginosa PAO1; ionic strength 175 mM): 4.92 ± 0.43 µg/mL

CC[C@H](C)[C@H](N)C(=O)N[C@@H](CCCNC(=N)N)C(=O)N[C@@H](CCCNC(=N)N)C(=O)N[C@H](C(=O)N[C@H](C(=O)N[C@@H](CCCNC(=N)N)C(=O)N[C@@H](CCCCN)C(=O)N[C@H](C(=O)N[C@H](C(=O)N[C@@H](Cc1c[nH]cn1)C(=O)N[C@H](C(=O)N[C@H](C(=O)N[C@@H](CCCCN)C(=O)N[C@@H](CCCCN)C(=O)O)[C@@H](C)CC)[C@@H](C)CC)[C@@H](C)CC)[C@@H](C)CC)[C@@H](C)CC)[C@@H](C)CC [SMAP29X-14D]
EC50 P. aeruginosa PAO1 (P. aeruginosa PAO1; [1]): 0.65 ± 0.06 µg/mL (≈ 0.361 µM) | EC50 P. aeruginosa PAO1 (P. aeruginosa PAO1; [2]): 7.11 ± 2.40 µg/mL (≈ 3.95 µM)

NLRRIIRKIIHIIKKY [SMAP29X-16A]
EC50 P. aeruginosa PAO1 (P. aeruginosa PAO1; [1]): 0.90 ± 0.54 µg/mL | EC50 P. aeruginosa PAO1 (P. aeruginosa PAO1; [2]): 1.78 ± 0.26 µg/mL

RRIIRKIIHIIK-NH2 [SMAP29X-12]
EC50 P. aeruginosa PAO1 μg/ml ± sem (P. aeruginosa PAO1; ionic strength 25 mM): 0.31 ± 0.01 µg/mL | EC50 P. aeruginosa PAO1 μg/ml ± sem (P. aeruginosa PAO1; ionic strength 175 mM): 3.83 ± 0.22 µg/mL

RIIRKIIHII-NH2 [SMAP29X-10]
EC50 P. aeruginosa PAO1 μg/ml ± sem (P. aeruginosa PAO1; ionic strength 25 mM): 0.51 ± 0.00 µg/mL | EC50 P. aeruginosa PAO1 μg/ml ± sem (P. aeruginosa PAO1; ionic strength 175 mM): 18.67 ± 0.97 µg/mL

KNLRRIIRKIIHIIKKYG-NH2 [SMAP29X-18A]
EC50 P. aeruginosa PAO1 (P. aeruginosa PAO1; [1]): 0.22 ± 0.00 µg/mL | EC50 P. aeruginosa PAO1 (P. aeruginosa PAO1; [2]): 0.49 ± 0.02 µg/mL

RKFRNKIKEKLKKIG [CAP18-15a]
EC50 P. aeruginosa PAO1 (P. aeruginosa PAO1; PAO1): >20 µg/mL | EC50 P. aeruginosa PAO1 (P. aeruginosa PAO1; [1]): 1.54 ± 0.43 µg/mL | EC50 (E. coli DH5α): 0.24 ± 0.07 µM | EC50 E. coli DH5α (E. coli DH5α): 0.46 ± 0.12 µg/mL | MIC E. coli [NaCl] High (E. coli ML-35p): 0.7 µg/mL | MIC E. coli [NaCl] Low (E. coli ML-35p): 0.2 µg/mL | MIC P. aeruginosa [NaCl] High (P. aeruginosa MR 3007): 5.3 µg/mL | MIC P. aeruginosa [NaCl] Low (P. aeruginosa MR 3007): 1.5 µg/mL | MIC S. aureus [NaCl] High (S. aureus 930918-3): >250 µg/mL | MIC S. aureus [NaCl] Low (S. aureus 930918-3): 19.5 µg/mL | MIC MRSA [NaCl] High (MRSA ATCC 33591): >250 µg/mL | MIC MRSA [NaCl] Low (MRSA ATCC 33591): >250 µg/mL
